Experiments:
Type in all cases: functional
DU-145 = test: Growth inhibition of human DU145 cells incubated for 48 hrs by sulforhodamine B assay; details: DU-145, 48 h
IGROV-1 = test: Growth inhibition of human IGROV1 cells incubated for 48 hrs by sulforhodamine B assay; details: IGROV-1, 48 h
LOX IMVI = test: Growth inhibition of human LOXIMVI cells incubated for 48 hrs by sulforhodamine B assay
NCI-H23 = test: Growth inhibition of human NCI-H23 cells incubated for 48 hrs by sulforhodamine B assay; details: NCI-H23, 48 h
ACHN = test: Growth inhibition of human ACHN cells incubated for 48 hrs by sulforhodamine B assay
CAKI-1 = test: Growth inhibition of human Caki1 cells incubated for 48 hrs by sulforhodamine B assay; details: CAKI-1, 48 h
OVCAR-4 = test: Growth inhibition of human OVCAR4 cells incubated for 48 hrs by sulforhodamine B assay; details: OVCAR-4, 48 h
PC-3 = test: Growth inhibition of human PC3 cells incubated for 48 hrs by sulforhodamine B assay; details: PC-3, 48 h
OVCAR-3 = test: Growth inhibition of human OVCAR3 cells incubated for 48 hrs by sulforhodamine B assay; details: OVCAR-3, 48 h
SNB-19 = test: Growth inhibition of human SNB19 cells incubated for 48 hrs by sulforhodamine B assay; details: SNB-19, 48 h
SK-MEL-5 = test: Growth inhibition of human SK-MEL-5 cells incubated for 48 hrs by sulforhodamine B assay; details: SK-MEL-5, 48 h
SN12C = test: Growth inhibition of human SN12C cells incubated for 48 hrs by sulforhodamine B assay
HCT-15 = test: Growth inhibition of human HCT15 cells incubated for 48 hrs by sulforhodamine B assay; details: HCT-15, 48 h
MDA-MB-435 = test: Growth inhibition of human MDA-MB-435 cells incubated for 48 hrs by sulforhodamine B assay; details: MDA-MB-435, 48 h
786-0 = test: Growth inhibition of human 786-0 cells incubated for 48 hrs by sulforhodamine B assay; details: 786-0, 48 h
BT-549 = test: Growth inhibition of human BT549 cells incubated for 48 hrs by sulforhodamine B assay; details: BT-549, 48 h
UACC-257 = test: Growth inhibition of human UACC257 cells incubated for 48 hrs by sulforhodamine B assay; details: UACC-257, 48 h
A498 = test: Growth inhibition of human A498 cells incubated for 48 hrs by sulforhodamine B assay; details: A498, 48 h
OVCAR-8 = test: Growth inhibition of human OVCAR8 cells incubated for 48 hrs by sulforhodamine B assay; details: OVCAR-8, 48 h
MDA-MB-231 = test: Growth inhibition of human MDA-MB-231 cells incubated for 48 hrs by sulforhodamine B assay; details: MDA-MB-231, 48 h
SK-MEL-28 = test: Growth inhibition of human SK-MEL-28 cells incubated for 48 hrs by sulforhodamine B assay; details: SK-MEL-28, 48 h
Malme-3M = test: Growth inhibition of human MALME-3M cells incubated for 48 hrs by sulforhodamine B assay
T47D = test: Growth inhibition of human T47D cells incubated for 48 hrs by sulforhodamine B assay
A549 = test: Growth inhibition of human A549/ATCC cells incubated for 48 hrs by sulforhodamine B assay; details: A549, 48 h
SNB-75 = test: Growth inhibition of human SNB75 cells incubated for 48 hrs by sulforhodamine B assay; details: SNB-75, 48 h
SF-539 = test: Growth inhibition of human SF539 cells incubated for 48 hrs by sulforhodamine B assay; details: SF-539, 48 h
K562 = test: Growth inhibition of human K562 cells incubated for 48 hrs by sulforhodamine B assay; details: K562, 48 h
UO-31 = test: Growth inhibition of human UO31 cells incubated for 48 hrs by sulforhodamine B assay; details: UO-31, 48 h
SF-295 = test: Growth inhibition of human SF295 cells incubated for 48 hrs by sulforhodamine B assay; details: SF-295, 48 h
NCI/ADR-RES = test: Growth inhibition of human NCI/ADR-RES cells incubated for 48 hrs by sulforhodamine B assay
SK-MEL-2 = test: Growth inhibition of human SK-MEL-2 cells incubated for 48 hrs by sulforhodamine B assay; details: SK-MEL-2, 48 h
HOP-62 = test: Growth inhibition of human HOP62 cells incubated for 48 hrs by sulforhodamine B assay; details: HOP-62, 48 h
[1] = read-out: LC50 (the source's name)

## COc1cc2cc(Oc3ccc(NC(=O)Nc4cccc(C(F)(F)F)c4)cc3)c(C)nc2cc1OC
DU-145
  GI50: 2.78 µM
  TGI: 15.8 µM
DU-145; [1]
  CC50: > 50 µM
IGROV-1
  GI50: 2.95 µM
  TGI: 24.9 µM
IGROV-1; [1]
  CC50: > 50 µM
LOX IMVI
  GI50: 1.84 µM
  TGI: 6.61 µM
LOX IMVI; [1]
  CC50: 18.3 µM
NCI-H23
  GI50: 1.7 µM
  TGI: 7.41 µM
NCI-H23; [1]
  CC50: > 50 µM
ACHN
  GI50: 1.64 µM
  TGI: 7.71 µM
ACHN; [1]
  CC50: > 50 µM
CAKI-1
  GI50: 1.32 µM
  TGI: 4.29 µM
CAKI-1; [1]
  CC50: 48.6 µM
OVCAR-4
  GI50: 2.3 µM
  TGI: 9.7 µM
OVCAR-4; [1]
  CC50: 36 µM
PC-3
  GI50: 1.39 µM
  TGI: 5.49 µM
PC-3; [1]
  CC50: 30.4 µM
OVCAR-3
  GI50: 2.04 µM
  TGI: 8.07 µM
OVCAR-3; [1]
  CC50: 39.9 µM
SNB-19
  GI50: 2.19 µM
  TGI: 15 µM
SNB-19; [1]
  CC50: > 50 µM
SK-MEL-5
  GI50: 1.08 µM
  TGI: 2.66 µM
SK-MEL-5; [1]
  CC50: 8.47 µM
SN12C
  GI50: 2.06 µM
  TGI: 16.3 µM
SN12C; [1]
  CC50: > 50 µM
HCT-15
  GI50: 1.85 µM
  LC50 (lethal concentration, 50% net cell kill): > 50 µM
  TGI: 22.2 µM
MDA-MB-435
  GI50: 1.63 µM
  TGI: 10.1 µM
MDA-MB-435; [1]
  CC50: > 50 µM
786-0
  GI50: 1.74 µM
  TGI: 9.24 µM
786-0; [1]
  CC50: > 50 µM
BT-549
  GI50: 1.43 µM
  TGI: 6.18 µM
BT-549; [1]
  CC50: 28.2 µM
UACC-257
  GI50: 1.09 µM
  TGI: 3.66 µM
UACC-257; [1]
  CC50: 19.9 µM
A498
  GI50: 1.29 µM
  TGI: 4.95 µM
A498; [1]
  CC50: 29.7 µM
OVCAR-8
  GI50: 1.71 µM
  TGI: 6.28 µM
OVCAR-8; [1]
  CC50: 19.9 µM
MDA-MB-231
  GI50: 1.13 µM
  TGI: 4.15 µM
MDA-MB-231; [1]
  CC50: 18.6 µM
SK-MEL-28
  GI50: 1.97 µM
  TGI: 8.37 µM
SK-MEL-28; [1]
  CC50: 28.2 µM
Malme-3M
  GI50: 1.71 µM
  TGI: 4.9 µM
Malme-3M; [1]
  CC50: 33.8 µM
T47D
  GI50: 1.61 µM
  TGI: 6.68 µM
T47D; [1]
  CC50: > 50 µM
A549
  GI50: 1.47 µM
  TGI: 6.49 µM
A549; [1]
  CC50: 26.6 µM
SNB-75
  GI50: 1.17 µM
  TGI: 6.18 µM
SNB-75; [1]
  CC50: > 50 µM
SF-539
  GI50: 2.48 µM
  TGI: 8.74 µM
SF-539; [1]
  CC50: 25.4 µM
K562
  GI50: 1.73 µM
  LC50 (concentration killing 50% of cells): > 50 µM
  TGI: 14 µM
UO-31
  GI50: 1.98 µM
  TGI: 10.8 µM
UO-31; [1]
  CC50: > 50 µM
SF-295
  GI50: 1.13 µM
  TGI: 3.59 µM
SF-295; [1]
  CC50: 27.2 µM
NCI/ADR-RES
  GI50: 1.71 µM
  TGI: 7.19 µM
NCI/ADR-RES; [1]
  CC50: 40 µM
SK-MEL-2
  GI50: 1.28 µM
  TGI: 2.87 µM
SK-MEL-2; [1]
  CC50: 9.93 µM
HOP-62
  GI50: 2.33 µM
  TGI: 8.44 µM
HOP-62; [1]
  CC50: 24.1 µM

Source: ChEMBL document CHEMBL3994622, “Design and synthesis of new RAF kinase-inhibiting antiproliferative quinoline derivatives. Part 2: Diarylurea derivatives” (Eur J Med Chem, 2017)
